These results are taken from patent publication US20170306322A1, “METHODS AND MATERIALS FOR IDENTIFYING COMPOUNDS PROMOTING TRA[…]-THROUGH OF NONSENSE MUTATIONS” (Evolva SA, priority 2013, published 2017).

Entries after “also recorded” stand apart in the source; their conditions may differ.

Assay [1] relates to APC premature stop codon luciferase reporter. The assay is described as follows: Dual Luciferase Assay, yeast APC premature stop codon Fluc reporter. In kind it is cell-based. As to conditions: haploid and diploid strains (EFSC2740), compared to vehicle only (DMSO), triplicate. The method, then:
To assess functionality of the Fluc reporter system, a luciferase activity protocol for the Dual Luciferase® Assay kit (Promega) was optimized to be able to test yeast strains in 96-well format. A representative experiment is outlined here. The yeast were incubated for 30° C. overnight. The luciferase assay was performed according to manufacturer's recommended protocol. Briefly, yeast cells were resuspended in SCgal culture media and measured at A600. A 10 uL sample was transferred to a white-opaque-bottom 96-well plate, mixed with 50 uL of passive lysis buffer and incubated at room-temperature for 20-30 minutes with gentle shaking. Next, 50 uL of luciferase assay reagent II and 50 uL of Stop & Glo® reagent were added. The plate was read in a plate reader using a dual luciferase program. The remaining yeast culture was maintained at 30° C. and the luciferase assays was performed daily.
The results of the above Dual Luciferase® Assay experiment are shown in FIG. 4 (samples were tested in triplicate and data was analyzed by GraphPad® with error bars showing mean with 95% confidence interval). Here, 3 different integration sites for the Fluc reporter were analyzed both in a haploid assay strain and in a diploid setting in the presence of aminoglycosides G418 and paromomycin. […]

The subject of assay [2] is premature stop codon in APC. The assay is described as follows: Liquid suppression test, strain EFSC2686, APC premature stop codon URA3 reporter. Type of assay: cell-based, yeast. On the procedure: Liquid suppression tests were also conducted with a different aminoglycoside, paromomycin. Read-through of the premature stop codon in APC was also observed after liquid cultivation of the strain in the presence of increasing concentrations of the aminoglycoside paromomycin. Here, strain EFSC2686 was grown in SCgal-ura media in the presence of increasing amounts of drug (0-500 uM) and growth rate was monitored on a daily basis. The presence of ≧250 uM paromomycin supports growth in SCgal media lacking uracil after 4 days incubation (see FIG. 3C).

Assay [3] relates to APC premature stop codon C1450X. The assay is described as follows: Yeast APC premature stop codon URA3/ADE2 reporter spot test on plates. In kind it is cell-based. As to conditions: 20 ug/ml G418, spot test, 3-5 days at 30° C., Pgal1-APCmut-URA3/ADE2 strain. From the text: A nucleic acid sequence containing a nonsense mutation was introduced into a yeast expression construct under the transcriptional control of a promoter e.g., an inducible promoter such as a galactose inducible promoter. The nucleic acid sequence containing the nonsense mutation was fused to a first marker gene such as URA3 and/or ADE2 (or other gene that results in an auxotroph if the gene is not transcribed and translated). The plasmid was integrated into an intergenic region in the genome of a modified yeast strain harboring deletion of ura3 and/or ade2 using conventional LiAc yeast transformation methods. Integrants were selected on media plates containing the antibiotic Hygromycin B or lacking histidine selecting for the marker present on the expression plasmid. Integrated strains were incubated with test compounds and plated on relevant growth media. Suitable test compounds include, for example, libraries of small molecules or expression libraries. […] Production of URA3 allowed the yeast cells to grow and form colonies on media lacking uracil after 2-4 days incubation at 30° C. Production of ADE2 conferred a white coloration of the yeast colonies and allowed the yeast cells to grow and form colonies on media plates lacking adenine after 2-4 days incubation at 30° C. […]
Next, the yeast strains were tested for read-through of the stop codon in the presence of the aminoglycoside G418. […]

Assay [4] has as its system native stop codons in human genes (V-ATPase, Mdm2, ArhGAP1, DAT and PKCb, and striatin). The assay is described as follows: Yeast URA3 reporter spot test with native stop codons of human genes. In kind it is cell-based. From the text:
In a similar set-up, read-through of 6 native stop codons in human genes (V-ATPase, Mdm2, ArhGAP1, DAT and PKCb, and striatin) was examined in front of the URA3 reporter system. […] A representative spot-test analysis is shown in FIG. 3B, where a strain containing the native stop codon of the human striatin gene was compared with the strain containing the APC premature stop codon mutant.

Assay [5] has as its system P53 STOP (TAA198), P53 STOP (TAG221), P53 STOP (TGA196). The assay is described as follows: Yeast p53 stop codon URA3 reporter suppression on SCgal-ura plates. In kind it is cell-based. On the procedure:
In addition to the APC stop-codon assay, other oncology targets including p53 were analyzed. Here, yeast strains were engineered with PGAL1-P53 STOP (TAA198)-URA3 (EFSC2231 and EFSC2233), PGAL1-P53 STOP (TAG221)-URA3 (EFSC2186 and EFSC2200) and PGAL1-P53 STOP (TGA196)-URA3 (EFSC2232 and EFSC2201) reporter integrated at the PRP5 locus. The strains were tested for suppression with G418 on SCgal-ura plates supplemented with increasing G418 concentrations.

In the case of `NC[C@@H]1O[C@H](O[C@H]2[C@@H](O)[C@H](O[C@@H]3[C@@H](O)[C@H](N)C[C@H](N)[C@H]3O[C@H]3O[C@H](CO)[C@@H](O)[C@H](O)[C@H]3N)O[C@@H]2CO)[C@H](N)[C@@H](O)[C@@H]1O` [paromomycin], the Firefly luciferase activity result in assay [1] is on record as “able to induce luciferase activity”. Also, the “suppression of the APC stop codon, production of URA3 protein” value in assay [2] (liquid cultivation, FIG. 3C) was “leads to suppression of the APC stop codon and production of URA3 protein”. In addition, the “paromomycin concentration that supports growth in SCgal media lacking uracil” value in assay [2] (strain EFSC2686, 0-500 uM tested, after 4 days incubation) is at least 250 µM.

Regarding `CN[C@@H]1[C@@H](O)[C@@H](O[C@@H]2[C@@H](O)[C@H](O[C@H]3O[C@H]([C@@H](C)O)[C@@H](O)[C@H](O)[C@H]3N)[C@@H](N)C[C@H]2N)OC[C@]1(C)O` [G418], the “read-through of the APC premature stop codon (growth on SCgal-ura plates)” value in assay [3] is listed as “allows translation read-through of the APC gene; also recorded: triggered read-through of the stop codon”. In assay [1], the Firefly luciferase activity result is “able to induce luciferase activity; also recorded: robust and significant Firefly luciferase activity”. In addition, in assay [4] (20 ug/ml G418, APC mutant versus 6 native stop codons), the “selectivity of suppression, premature versus native stop codons” value is given as “selective for premature stop codons”. For the same compound, in assay [4] (SCgal-uracil + 20 ug/ml G418, 6 native stop codons), the “read-through of native stop codons (growth on SCgal-uracil)” value is listed as “no detectable read-through of stop codon was observed”. Moreover, in assay [5] (G418, SCgal-ura plates), the “order of suppression response by stop codon” value is on record as “TGA>TAG>TAA”. The “expression of Ura3p, growth on SCgal-ura3 plates” value in assay [5] (increasing G418 concentrations, TAA198, TAG221 and TGA196 strains, all cases) is recorded as “able to trigger expression of Ura3p”.
